Measured values published in publication PMC10716921 (Frontiers in Pharmacology, 2023).
Where two headings read alike, the source gives them in different places.

How the values were obtained:
[1] = system: dermal fibroblast, 46BR.1N fibroblast, and HaCaT keratinocytes; type: cell-based, human
Protocol: Cell viability of dermal fibroblast, 46BR.1N fibroblast, and HaCaT keratinocytes was analyzed after 4 days of cell culture on RADA-PDGF2 hydrogel. RADA-PDGF2 was dissolved in water at a concentration of 1% w/v and placed in the inserts (0.4 µm) located in a 24-well plate. The whole was incubated for at least 1 hour at 37°C to allow gelation. Then, twice the volume of DMEM HG medium was added to the gel and left overnight in the incubator. The cells were trypsinized, centrifuge and then seeded on a gel at 50,000 per insert in DMEM HG medium with 2% FBS and 1% P/S. The medium was changed to DMEM HG with 2% FBS and 1% P/S after 2 days of incubation. After 4 days of incubation to assess viability, cells were stained with Calcein-AM (c = 8 µM) and propidium iodide (2 μg/mL) for 30 min and then analyzed by confocal microscopy with the use of Nikon Eclipse Ti-e Confocal Microscope.

[2] = system: human peripheral blood mononuclear cells (PBMCs); assay: Immunological analysis: activation of immune cells by flow cytometry; type: cell-based
Protocol: The analysis of the effect on immune cells in vitro was performed with human peripheral blood mononuclear cells (PBMCs) isolated from “buffy coats” using a Ficoll density gradient (Histopaque, Sigma-Aldrich Co.). The procedure was approved by the Independent Bioethics Commission for Research of the Medical University of Gdańsk (NKBBN/387/2014). 100 ul of 1% RADA-PDGF2 was placed in a 24-well plate. Then, culture inserts with a pore diameter of 0.4 μm were placed in the wells, and cells were seeded into them in the amount of 0.5 million cells/0.5 mL RPMI 1640 (P/S, 10% FBS)/well. This was then supplemented with medium alone to a final volume of 1 mL/well. Cells were incubated in standard conditions for 24 h. The negative control was unstimulated cells, grown in the insert, in a well without gels. RADA16-I constituted an additional control. After the incubation, cells were harvested, washed in PBS, counted, and prepared for cytometric analysis. 100,000 cells/100 µL were stained with fluorochrome-conjugated monoclonal antibodies (anti-CD3, anti-CD4, anti-CD8, anti-CD16, anti-CD56, anti-CD25, anti-CD69, anti-CD71, anti-HLA-DR, anti-CD11c, anti-CD80, and anti-CD83). Following 30 min of incubation at room temperature (RT) in the dark, the cells were analyzed using a flow cytometer (LSRFortessa, BD).

[3] = type: physicochemical
Protocol: Blood samples provided by healthy volunteers were processed with lithium/heparin tubes to eliminate clots by centrifugation. Plasma aliquots were mixed with RADA-PDGF2 peptide for 24 h at 37°C, using a plasma to peptide volume ratio of (4:1% v/v), to obtain final concentration 2.69 µM of RADA-PDGF2 peptide.). Samples were collected at six time points (0, 1, 2, 3, 6, and 24 h) to assess water and plasma stability. The collected samples were then prepared and analyzed according to the protocol described earlier ([Dzierżyńska et al., 2023]).

[4] = in vivo, iv; cited from earlier work
Text: (§1) Platelet-derived growth factor BB (PDGF-BB), one of the first growth factors released into the wound, plays a crucial role in the wound healing process. It is responsible for the formation of granulation tissue, production of extracellular matrix (ECM), takes part in the recruitment of mesenchymal stromal cells (MSCs), and stimulates the proliferation of fibroblasts ([White et al., 2021]). In 1997, the FDA approved human recombinant PDGF-BB in sodium carboxy-methylcellulose (NaCMC) hydrogel (Regranex®) for the treatment of DFUs ([Reyes-Martínez et al., 2019]). However, because of the high cos ...

[5] = system: human neutrophil elastase; assay: human neutrophil elastase enzyme (EC No. 3.4.21.37, Sigma Aldrich, USA) in 25 mM Tris HCl buffer, pH 7.5; settings: 37°C, up to 30 min
[6] = system: lymphocytes and basophils; settings: cited from earlier work
Text: as §1

mice = settings: applied topically in 18% P407 hydrogel, mice model; ref Deptuła et al., 2020; cited from earlier work
Text: as §1

[7] = system: human skin cells, especially keratinocytes; settings: ref Deptuła et al., 2020; cited from earlier work
Text: as §1

skin cells = settings: cited from earlier work
Text: Platelet-derived growth factor BB (PDGF-BB), one of the first growth factors released into the wound, plays a crucial role in the wound healing process. It is responsible for the formation of granulation tissue, production of extracellular matrix (ECM), takes part in the recruitment of mesenchymal stromal cells (MSCs), and stimulates the proliferation of fibroblasts ([White et al., 2021]). In 1997, the FDA approved human recombinant PDGF-BB in sodium carboxy-methylcellulose (NaCMC) hydrogel (Regranex®) for the treatment of DFUs ([Reyes-Martínez et al., 2019]). However, because of the high cos ... || During the development of new biomaterials, it is crucial to analyze not only their physicochemical properties and activity but also their biocompatibility and potential risk to human cells and tissues ([Schmalz and […], 2017]). That is why we decided to evaluate the cytotoxicity of RADA-PDGF2 and its effect on immune cells. Based on our experience and literature data, we know that peptides can be cytotoxic to human cells ([Greco et al., 2020]). […] However, RADA- ...

[8] = previous stability studies; ref Dzierżyńska et al., 2023; cited from earlier work

Molecule: CC[C@H](C)[C@H](NC(=O)[C@H](CC(C)C)NC(=O)[C@H](CCCNC(=N)N)NC(=O)CNC(=O)CNC(=O)CNC(=O)[C@@H](NC(=O)[C@@H]1CCCN1C(=O)[C@H](C)NC(=O)[C@H](C)NC(=O)CNC(=O)CNC(=O)CNC(=O)[C@H](C)NC(=O)[C@H](CC(=O)O)NC(=O)[C@H](C)NC(=O)[C@H](CCCNC(=N)N)NC(=O)[C@H](C)NC(=O)[C@H](CC(=O)O)NC(=O)[C@H](C)NC(=O)[C@H](CCCNC(=N)N)NC(=O)[C@H](C)NC(=O)[C@H](CC(=O)O)NC(=O)[C@H](C)NC(=O)[C@H](CCCNC(=N)N)NC(=O)[C@H](C)NC(=O)[C@H](CC(=O)O)NC(=O)[C@H](C)NC(=O)[C@H](CCCNC(=N)N)NC(C)=O)C(C)C)C(=O)N[C@@H](CC(=O)O)C(=O)N[C@@H](CCCNC(=N)N)C(=O)N[C@H](C(=O)N[C@@H](CC(N)=O)C(=O)N[C@@H](C)C(=O)N[C@@H](CC(N)=O)C(=O)N[C@@H](Cc1ccccc1)C(=O)N[C@@H](CC(C)C)C(N)=O)[C@@H](C)O [RADA-PDGF2]
- skin cell viability on hydrogel [1]: remained viable
- CD11c+CD83+ active DCs population compared to untreated control [2]: statistically significant increase
- NK cells: expression of CD25 [2]: slight increase
- NK cells: expression of CD71 [2]: reduction
- NK cells: statistical significance of change in activation markers [2]: no statistical significance was noted
- Th cells: expression of activation markers versus unstimulated cells [2]: any statistically significant differences between unstimulated cells and cells stimulated with RADA-PDGF2 were not observed
- cytotoxic lymphocytes (CTL): expression of CD69 marker [2]: increased expression
- overall immunological assessment [2]: safe in an immunological context
- time over which the peptide exhibited chemical stability in aqueous solution [3]: 24 h

Molecule: PDGF-BB: Platelet-derived growth factor BB
- half-life [4]: a few minutes

Molecule: Ac-(RADA)4GGGAAPVGGGRLIDRTNANFL-NH2
- cleaved bond [5]: V23-G24, major

Molecule: RLIDRTNANFL [PDGF2, peptide … derived from PDGF-BB]
- immunogenicity in vitro [6]: negligible lymphocyte and basophil activation
- effect on wound healing (mice): accelerates wound healing
- pro-proliferative properties [7]: strong pro-proliferative properties
- cytotoxicity (skin cells): minimal cytotoxicity

Molecule: CC(=O)N[C@@H](CCCNC(=N)N)C(=O)N[C@@H](C)C(=O)N[C@@H](CC(=O)O)C(=O)N[C@@H](C)C(=O)N[C@@H](CCCNC(=N)N)C(=O)N[C@@H](C)C(=O)N[C@@H](CC(=O)O)C(=O)N[C@@H](C)C(=O)N[C@@H](CCCNC(=N)N)C(=O)N[C@@H](C)C(=O)N[C@@H](CC(=O)O)C(=O)N[C@@H](C)C(=O)N[C@@H](CCCNC(=N)N)C(=O)N[C@@H](C)C(=O)N[C@@H](CC(=O)O)C(=O)N[C@@H](C)C(N)=O [RADA16-I, reference compound]
- presence of peptide in plasma [8]: did not show prolonged presence of peptide in plasma
- overall immunological assessment ([2]; PBMCs, 24 h, due to the low values of the changes): safe in an immunological context
